Experimental data taken from patent publication US20240124504A1, “AROMATIC HETEROCYCLIC COMPOUND, AND PHARMACEUTICAL COMPOSITION AND APPLICATION THEREOF” (GT APEIRON THERAPEUTICS LIMITED, priority 2020, published 2024).

Tests used:
[1] = molecular target: CDK2/cyclinE1 complex (Homo sapiens, UniProt P24941); assay: In-vitro enzymatic inhibitory activity testing, CDK2 inhibition assay (Caliper EZ Reader II); format: biochemical; conditions: CDK2/cyclinE1 0.5 nM, 180 min at 27° C.
Method in brief: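 CDK2/cyclinE1 (0.5 nM) phosphorylated 5-FAM-CDK7tide (2 μM) in MES buffer pH 6.5 with MgCl2, Tween 20 and BSA. Substrate and product were separated electrophoretically on a Caliper EZ Reader II. IC50 values came from nonlinear dose-response fits.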

[2] = molecular target: T1, CDK12 (aa686-1082)/cyclinK complex (Homo sapiens, UniProt Q9NYV4); assay: In-vitro enzymatic inhibitory activity testing, CDK12 inhibition assay (Caliper EZ Reader II); format: biochemical; conditions: CDK12/cyclinK 50 nM, 180 min at 27° C.; read-out: CDK12 IC50
T1 construct: A CDK12 (aa686-1082)/cyclinK complex (50 nM)
Method in brief: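 Caliper EZ Reader II mobility-shift separation of 5-FAM-CDK9tide substrate (2 μM) from phosphoproduct, using 50 nM CDK12 (aa686-1082)/cyclinK in 80 mM MES pH 6.5, 10 mM MgCl2, 0.01% Tween 20, 50 ug/mL BSA. Compound pre-incubated 10 min with enzyme, then substrate/ATP added for 180 min at 27° C; EDTA stop. IC50 by nonlinear dose-response regression.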

T1 sequence (Q9NYV4 686-1082, species assumed): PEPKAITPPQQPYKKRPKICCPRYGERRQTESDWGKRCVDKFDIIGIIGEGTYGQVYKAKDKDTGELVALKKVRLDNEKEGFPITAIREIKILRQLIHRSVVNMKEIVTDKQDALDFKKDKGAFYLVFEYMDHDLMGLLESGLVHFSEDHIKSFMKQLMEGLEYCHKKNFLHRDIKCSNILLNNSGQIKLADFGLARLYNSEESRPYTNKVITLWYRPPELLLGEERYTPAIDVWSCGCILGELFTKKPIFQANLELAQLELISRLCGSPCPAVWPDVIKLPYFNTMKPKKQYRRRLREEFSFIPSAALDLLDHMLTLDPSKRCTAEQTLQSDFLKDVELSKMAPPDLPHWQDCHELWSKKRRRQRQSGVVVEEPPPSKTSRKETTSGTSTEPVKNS
T1 sequence (O75909 whole entry partner, species assumed, the tested form may be a part): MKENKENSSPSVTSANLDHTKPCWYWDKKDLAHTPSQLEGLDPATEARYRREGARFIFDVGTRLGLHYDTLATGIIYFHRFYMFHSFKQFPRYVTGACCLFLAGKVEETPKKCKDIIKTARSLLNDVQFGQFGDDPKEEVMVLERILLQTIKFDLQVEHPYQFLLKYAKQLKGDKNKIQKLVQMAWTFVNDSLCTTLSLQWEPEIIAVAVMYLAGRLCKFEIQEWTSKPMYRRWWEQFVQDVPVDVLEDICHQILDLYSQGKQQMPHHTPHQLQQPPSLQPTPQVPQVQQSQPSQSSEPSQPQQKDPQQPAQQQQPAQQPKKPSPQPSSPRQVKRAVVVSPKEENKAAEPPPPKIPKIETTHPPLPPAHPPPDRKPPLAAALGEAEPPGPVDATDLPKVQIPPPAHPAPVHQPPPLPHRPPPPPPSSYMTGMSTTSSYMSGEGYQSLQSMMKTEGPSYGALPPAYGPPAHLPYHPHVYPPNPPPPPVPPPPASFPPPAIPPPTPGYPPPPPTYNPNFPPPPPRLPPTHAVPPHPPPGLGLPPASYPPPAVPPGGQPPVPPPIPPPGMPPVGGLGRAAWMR

Row | IC50 [1] [µM] | IC50 [2] [µM] | SMILES
1 | 5 to 50 | 5 to 50 | CC1(C)COCC(Nc2ncc(C(F)(F)F)c(-c3c[nH]c4c(P(C)(C)=O)cccc34)n2)CN1 (single isomer, unassigned) [Compound 91, (3-(2-((3,3-dimethyl-1,4-oxazepan-6-yl)amino)-5-(trifluoromethyl)pyrimidin-4-yl)-1H-indole-7-yl)dimethylphosphine oxide]
2 | 5 to 50 | > 50 | CP(C)(=O)c1cccc2c(-c3nc(NC4(CO)CCOC4)ncc3C(F)(F)F)c[nH]c12 (single isomer, unassigned) [Compound 118]
3 | 5 to 50 | > 50 | CC(O)[C@H](C)Nc1ncc(C(F)(F)F)c(-c2c[nH]c3c(P(C)(C)=O)cccc23)n1 (single isomer, unassigned) [Compound 129]
4 | 5 to 50 | > 50 | CP(C)(=O)c1cccc2c(-c3nc(NCC4CC4CO)ncc3C(F)(F)F)c[nH]c12 (single isomer, unassigned) [Compound 143]
5 | 0.2 to 5 | > 50 | CC(CO)CNc1ncc(C(F)(F)F)c(-c2c[nH]c3c(P(C)(C)=O)cccc23)n1 (single isomer, unassigned) [Compound 149]
6 | 0.2 to 5 | > 50 | C[C@@H](CO)Nc1ncc(C(F)(F)F)c(-c2c[nH]c3c(P(C)(C)=O)c(C#N)ccc23)n1 [Compound 79, (S)-7-(dimethylphosphoryl)-3-(2-((1-hydroxy-propan-2-yl)amino)-5-(trifluoromethyl)pyrimidin-4-yl)-1H-indole-6-carbonitrile]
7 | 0.2 to 5 | 5 to 50 | C[C@@H](CO)Nc1ncc(C(F)(F)F)c(-c2c[nH]c3c(P(C)(C)=O)cccc23)n1 [Compound 82, (S)-(3-(2-((1-hydroxypropyl-2-yl)amino)-5-(trifluoromethyl)pyrimidin-4-yl)-1H-indole-7-yl)dimethylphosphine oxide]
8 | 0.2 to 5 | 5 to 50 | CP(C)(=O)c1cccc2c(-c3nc(N[C@H]4CC[C@H](O)C4)ncc3C(F)(F)F)c[nH]c12 [Compound 83]
9 | 5 to 50 | > 50 | CC(C)(CO)Nc1ncc(C(F)(F)F)c(-c2c[nH]c3c(P(C)(C)=O)cccc23)n1 [Compound 85, (3-(2-((1-hydroxy-2-methylpropan-2-yl)amino)-5-(trifluoromethyl)pyrimidin-4-yl)-1H-indole-7-yl)dimethylphosphine oxide]
10 | 0.2 to 5 | > 50 | CP(C)(=O)c1cccc2c(-c3nc(NC[C@H](F)CO)ncc3C(F)(F)F)c[nH]c12 [Compound 86, (S)-(3-(2-((2-fluoro-3-hydroxypropyl)amino)-5-(trifluoromethyl)pyrimidin-4-yl)-1H-indole-7-yl)dimethylphosphine oxide]
11 | 0.2 to 5 | > 50 | CP(C)(=O)c1cccc2c(-c3nc(N[C@H]4COC[C@@H]4O)ncc3C(F)(F)F)c[nH]c12 [Compound 87]
12 | 0.2 to 5 | > 50 | CC[C@@H](CO)Nc1ncc(C(F)(F)F)c(-c2c[nH]c3c(P(C)(C)=O)cccc23)n1 [Compound 88, (S)-(3-(2-((1-hydroxybutan-2-yl)amino)-5-(trifluoromethyl)pyrimidin-4-yl)-1H-indole-7-yl)dimethylphosphine oxide]
13 | 0.2 to 5 | > 50 | CP(C)(=O)c1cccc2c(-c3nc(NCCCO)ncc3C(F)(F)F)c[nH]c12 [Compound 89, (3-(2-((3-hydroxypropyl)amino)-5-(trifluoromethyl)pyrimidin-4-yl)-1H-indole-7-yl)dimethylphosphine oxide]
14 | 0.2 to 5 | 5 to 50 | C[C@H](CO)Nc1ncc(C(F)(F)F)c(-c2c[nH]c3c(P(C)(C)=O)cccc23)n1 [Compound 93, (R)-(3-(2-((1-hydroxypropyl-2-yl)amino)-5-(trifluoromethyl)pyrimidin-4-yl)-1H-indole-7-yl)dimethylphosphine oxide]
15 | 5 to 50 | > 50 | CP(C)(=O)c1cccc2c(-c3nc(NC4(CO)CC4)ncc3C(F)(F)F)c[nH]c12 [Compound 94, (3-(2-((1-(hydroxymethyl)cyclopropyl)amino)-5-(trifluoromethyl)pyrimidin-4-yl)-1H-indole-7-yl)dimethylphosphine oxide]
16 | 5 to 50 | > 50 | CP(C)(=O)c1cccc2c(-c3nc(NC4(CO)CC(F)(F)C4)ncc3C(F)(F)F)c[nH]c12 [Compound 96, (3-(2-((3,3-difluoro-1-(hydroxymethyl)cyclobutyl)amino)-5-(trifluoromethyl)pyrimidin-4-yl)-1H-indole-7-yl)dimethylphosphine oxide]

Row | IC50 [1] [µM] | IC50 [2] [µM] | SMILES
17 | 0.2 to 5 | > 50 | CP(C)(=O)c1cccc2c(-c3nc(NCCO)ncc3C(F)(F)F)c[nH]c12 [Compound 97, (3-(2-((2-hydroxyethyl)amino)-5-(trifluoromethyl)pyrimidin-4-yl)-1H-indole-7-yl)dimethylphosphine oxide]
18 | 5 to 50 | > 50 | CP(C)(=O)c1cccc2c(-c3nc(NCC(F)(F)CO)ncc3C(F)(F)F)c[nH]c12 [Compound 102, (3-(2-((2,2-difluoro-3-hydroxypropyl)amino)-5-(trifluoromethyl)pyrimidin-4-yl)-1H-indole-7-yl)dimethylphosphine oxide]
19 | 0.2 to 5 | > 50 | C[C@@H](CO)Nc1ncc(Cl)c(-c2c[nH]c3c(P(C)(C)=O)cccc23)n1 [Compound 103, (S)-(3-(5-chloro-2-((1-hydroxypropan-2-yl)amino)pyrimidin-4-yl)-1H-indole-7-yl)dimethylphosphine oxide]
20 | 5 to 50 | > 50 | CP(C)(=O)c1cccc2c(-c3nc(NC4(CO)CC(F)C4)ncc3C(F)(F)F)c[nH]c12 (centres unmarked) [Compound 105, (3-(2-((3-fluoro-1-(hydroxymethyl)cyclobutyl)amino)-5-(trifluoromethyl)pyrimidin-4-yl)-1H-indole-7-yl)dimethylphosphine oxide]
21 | 0.2 to 5 | > 50 | CP(C)(=O)c1cccc2c(-c3nc(NC4(CO)COC4)ncc3C(F)(F)F)c[nH]c12 [Compound 114, (3-(2-((3-(hydroxymethyl)oxetan-3-yl)amino)-5-(trifluoromethyl)pyrimidin-4-yl)-1H-indole-7-yl)dimethylphosphine oxide]
22 | 0.2 to 5 | > 50 | CP(C)(=O)c1cccc2c(-c3nc(NCC4CC(O)C4)ncc3C(F)(F)F)c[nH]c12 (centres unmarked) [Compound 126, (3-(2-(((3-hydroxycyclobutyl)methyl)amino)-5-(trifluoromethyl)pyrimidin-4-yl)-1H-indole-7-yl)dimethylphosphine oxide]
23 | 0.2 to 5 | > 50 | CP(C)(=O)c1cccc2c(-c3nc(NC[C@H]4C[C@](C)(O)C4)ncc3C(F)(F)F)c[nH]c12 [Compound 127, (3-(2-(((trans-3-hydroxy-3-methylcyclobutyl)methyl)amino)-5-(trifluoromethyl)pyrimidin-4-yl)-1H-indole-7-yl)dimethylphosphine oxide]
24 | 0.2 to 5 | 0.2 to 5 | CN(C)[C@H]1CC[C@H](Nc2ncc(C(F)(F)F)c(-c3c[nH]c4c(P(C)(C)=O)cccc34)n2)C1 [Compound 137, (3-(2-(((1S,3S)-3-(dimethylamino)cyclopentyl)amino)-5-(trifluoromethyl)pyrimidin-4-yl)-1H-indole-7-yl)dimethylphosphine oxide]
25 | 0.2 to 5 | > 50 | CP(C)(=O)c1cccc2c(-c3nc(N[C@@H]4CC[C@H]4O)ncc3C(F)(F)F)c[nH]c12 [Compound 153, (3-(2-(((1R,2R)-2-hydroxycyclobutyl)amino)-5-(trifluoromethyl)pyrimidin-4-yl)-1hydro-indole-7-yl)dimethylphosphine oxide]
26 | 0.2 to 5 | 5 to 50 | CP(C)(=O)c1cccc2c(-c3nc(N[C@H]4CC[C@@H]4O)ncc3C(F)(F)F)c[nH]c12 [Compound 154, (3-(2-(((1S,2S)-2-hydroxycyclobutyl)amino)-5-(trifluoromethyl)pyrimidin-4-yl)-1hydro-indole-7-yl)dimethylphosphine oxide]
27 | 0.2 to 5 | 5 to 50 | CP(C)(=O)c1cccc2c(-c3nc(N[C@H]4CCC[C@@H]4O)ncc3C(F)(F)F)c[nH]c12 [Compound 155, (3-(2-(((1S,2S)-2-hydroxycyclopentyl)amino)-5-(trifluoromethyl)pyrimidin-4-yl)-1hydro-indole-7-yl)dimethylphosphine oxide]
28 | 5 to 50 | 5 to 50 | CP(C)(=O)c1cccc2c(-c3nc(N[C@@H]4CCC[C@H]4O)ncc3C(F)(F)F)c[nH]c12 [Compound 156]
29 | 0.2 to 5 | > 50 | C[C@@H](CO)Nc1ncc(C(F)(F)F)c(-c2c[nH]c3c(P(C)(C)=O)cc(F)cc23)n1 [Compound 158]
30 | 5 to 50 | > 50 | CP(C)(=O)c1cccc2c(-c3nc(NC4(CO)CCC4)ncc3C(F)(F)F)c[nH]c12 [Compound 168, (3-(2-((1-(hydroxymethyl)cyclobutyl)amino)-5-(trifluoromethyl)pyrimidin-4-yl)-1H-indole-7-yl)dimethylphosphine oxide]
31 | 0.2 to 5 | 0.2 to 5 | CP(C)(=O)c1cccc2c(-c3nc(NC45CC(O)(C4)C5)ncc3C(F)(F)F)c[nH]c12 [Compound 174, (3-(2-((3-hydroxybicyclo[1.1.1]pentan-1-yl)amino)-5-(trifluoromethyl)pyrimidin-4-yl)-1H-indole-7-yl)dimethylphosphine oxide]
